In general, IC50 refers to the concentration at which inhibition is half-maximal.

TrkA kinase, sequence (P04629 33-796): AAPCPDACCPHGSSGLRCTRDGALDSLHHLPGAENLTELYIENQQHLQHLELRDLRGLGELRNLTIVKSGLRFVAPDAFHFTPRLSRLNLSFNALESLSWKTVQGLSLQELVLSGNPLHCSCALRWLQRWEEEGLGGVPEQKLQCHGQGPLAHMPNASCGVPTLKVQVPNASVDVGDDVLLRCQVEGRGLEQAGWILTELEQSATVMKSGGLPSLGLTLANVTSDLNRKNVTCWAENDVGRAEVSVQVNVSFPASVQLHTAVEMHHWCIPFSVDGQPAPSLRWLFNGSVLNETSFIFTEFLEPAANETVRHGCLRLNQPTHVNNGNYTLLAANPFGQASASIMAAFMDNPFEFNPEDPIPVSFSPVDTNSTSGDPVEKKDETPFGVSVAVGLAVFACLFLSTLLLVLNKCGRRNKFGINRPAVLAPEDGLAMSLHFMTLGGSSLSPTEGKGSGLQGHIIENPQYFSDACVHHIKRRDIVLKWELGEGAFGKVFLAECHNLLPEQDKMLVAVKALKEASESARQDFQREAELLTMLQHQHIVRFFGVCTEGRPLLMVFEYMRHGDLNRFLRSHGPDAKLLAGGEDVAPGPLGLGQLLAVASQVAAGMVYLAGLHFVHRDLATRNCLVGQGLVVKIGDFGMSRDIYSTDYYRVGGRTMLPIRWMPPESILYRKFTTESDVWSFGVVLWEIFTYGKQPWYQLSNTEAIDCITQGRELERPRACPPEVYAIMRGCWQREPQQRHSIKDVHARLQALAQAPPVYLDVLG

For one assay, the target named is TrkA kinase (Homo sapiens, UniProt P04629). Briefly: TrkA kinase assay (mobility shift assay). In kind it is biochemical. The note with it: class symbols; read-out: Trk A Kinase IC50. Put shortly:
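Ten-point compound series was preincubated 10 min at room temperature with TrkA, then FAM-peptide plus ATP added in HEPES pH 7.5/Brij-35 buffer and reacted at 28 °C before EDTA quench.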
Regarding `Cn1c(-c2ccnc(N3CCC(O)CC3)c2)nnc1-c1cnn2ccc(N3CCC[C@@H]3c3cc(F)ccc3F)nc12` [Compound 21, (R)-1-(4-(5-(5-(2-(2,5-difluorophenyl)pyrrolidin-1-yl)pyrazolo[1,5-a]pyrimidin-3-yl)-4-methyl-4H-1,2,4-triazol-3-yl)pyridin-2-yl)piperidin-4-ol], the IC50 is greater than 50 nM.

As for `N#Cc1cc2nc(-c3cnn4ccc(N5CCC[C@@H]5c5cc(F)ccc5F)nc34)[nH]c2cc1C(=O)O` [Compound 153, (R)-5-cyano-2-(5-(2-(2,5-difluorophenyl)pyrrolidin-1-yl)pyrazolo[1,5-a]pyrimidin-3-yl)-1H-benzo[d]imidazole-6-carboxylic acid], the IC50 is no more than 10 nM.

In the case of `Fc1ccc(F)c([C@H]2CCCN2c2ccn3ncc(-c4nc5cc6nc7ccccc7nc6cc5[nH]4)c3n2)c1` [Compound 130, (R)-2-(5-(2-(2,5-difluorophenyl)pyrrolidin-1-yl)pyrazolo[1,5-a]pyrimidin-3-yl)-1H-imidazo[4,5-b]phenazine], the 50% inhibitory concentration (IC50) was greater than 50 nM.

`N#Cc1ccc2[nH]c(-c3cnn4ccc(N5CCC[C@@H]5c5cc(F)ccc5F)nc34)cc2c1` [Compound 133, (R)-2-(5-(2-(2,5-difluorophenyl)pyrrolidin-1-yl)pyrazolo[1,5-a]pyrimidin-3-yl)-1H-indole-5-carbonitrile]: the 50% inhibitory concentration (IC50) was in the range of 10 to 50 nM.

As to `Cn1c(-c2cnn3ccc(N4CCC[C@@H]4c4cc(F)ccc4F)nc23)nc2cc3c(cc21)OCCO3` [Compound 83, (R)-2-(5-(2-(2,5-difluorophenyl)pyrrolidin-1-yl)pyrazolo[1,5-a]pyrimidin-3-yl)-1-methyl-6,7-dihydro-1H-[1,4]dioxino[2′,3′:4,5]benzo[1,2-d]imidazole], the IC50 was greater than 50 nM.

For `N#Cc1cc2nc(-c3cnn4ccc(N5CCC[C@@H]5c5cc(F)ccc5F)nc34)[nH]c2cc1N1CCOCC1` [Compound 143, (R)-2-(5-(2-(2,5-difluorophenyl)pyrrolidin-1-yl)pyrazolo[1,5-a]pyrimidin-3-yl)-6-morpholino-1H-benzo[d]imidazole-5-carbonitrile], the IC50 was no more than 10 nM.

`COC(=O)c1ccc(F)c2nc(-c3cnn4ccc(N5CCC[C@@H]5c5cc(F)ccc5F)nc34)oc12` [Compound 175, methyl (R)-2-(5-(2-(2,5-difluorophenyl)pyrrolidin-1-yl)pyrazolo[1,5-a]pyrimidin-3-yl)-4-fluorobenzo[d]oxazole-7-carboxylate]: the IC50 was no more than 10 nM.

For `N#CCOc1cc2nc(-c3cnn4ccc(N5CCC[C@@H]5c5cc(F)ccc5F)nc34)[nH]c2cc1OCC#N` [Compound 119, (R)-2,2′-((2-(5-(2-(2,5-difluorophenyl)pyrrolidin-1-yl)pyrazolo[1,5-a]pyrimidin-3-yl)-1H-benzo[d]imidazole-5,6-diyl)bis(oxy))diacetonitrile], the half-maximal inhibitory concentration (IC50) is no more than 10 nM.

As to `Fc1ccc(F)c([C@H]2CCCN2c2ccn3ncc(-c4nnc(-c5ccc(Oc6ccccc6)cc5)[nH]4)c3n2)c1` [Compound 58, (R)-5-(2-(2,5-difluorophenyl)pyrrolidin-1-yl)-3-(5-(4-phenoxyphenyl)-4H-1,2,4-triazol-3-yl)pyrazolo[1,5-a]pyrimidine], the IC50 is greater than 50 nM.

For the molecule `Fc1ccc(F)c([C@H]2CCCN2c2ccn3ncc(-c4nc5c([nH]4)COCC5)c3n2)c1` [Compound 188, (R)-2-(5-(2-(2,5-difluorophenyl)pyrrolidin-1-yl)pyrazolo[1,5-a]pyrimidin-3-yl)-3,4,6,7-tetrahydropyrano[3,4-d]imidazole], the IC50 is no more than 10 nM.

Regarding `Fc1ccc(F)c([C@H]2CCCN2c2ccn3ncc(-c4nc5cnccc5s4)c3n2)c1` [Compound 75, (R)-2-(5-(2-(2,5-difluorophenyl)pyrrolidin-1-yl)pyrazolo[1,5-a]pyrimidin-3-yl)thiazolo[4,5-c]pyridine], the half-inhibitory concentration (IC50) was no more than 10 nM.

The same assay, now with this note: numeric values; read-out: Trk A Kinase IC50.
In the case of `Fc1ccc(F)c([C@H]2CCCN2c2ccn3ncc(-c4nnc(C5CCC(F)(F)CC5)[nH]4)c3n2)c1` [Compound 41, (R)-3-(5-(4,4-difluorocyclohexyl)-4H-1,2,4-triazol-3-yl)-5-(2-(2,5-difluorophenyl)pyrrolidin-1-yl)pyrazolo[1,5-a]pyrimidine], the IC50 was 3.92 nM.

Turning to `COc1cc2nc(-c3cnn4ccc(N5CCC[C@@H]5c5cc(F)ccc5F)nc34)[nH]c2cc1OC` [Compound 78, (R)-5-(2-(2,5-difluorophenyl)pyrrolidin-1-yl)-3-(5,6-dimethoxy-1H-benzo[d]imidazol-2-yl)pyrazolo[1,5-a]pyrimidine], the IC50 turned out to be 0.73 nM.

Turning to `CC(O)c1cc2nc(-c3cnn4ccc(N5CCC[C@@H]5c5cc(F)ccc5F)nc34)[nH]c2cn1` (stereo partly drawn) [Compound 70, 1-(2-(5-((R)-2-(2,5-difluorophenyl)pyrrolidin-1-yl)pyrazolo[1,5-a]pyrimidin-3-yl)-3H-imidazo[4,5-c]pyridin-6-yl)ethan-1-ol], the IC50 was 0.5 nM.

Turning to `Fc1ccc(F)c([C@H]2CCCN2c2ccn3ncc(-c4nc5ccc(F)cc5[nH]4)c3n2)c1` [Compound 74, (R)-5-(2-(2,5-difluorophenyl)pyrrolidin-1-yl)-3-(6-fluoro-1H-benzo[d]imidazol-2-yl)pyrazolo[1,5-a]pyrimidine], the IC50 was found to be 0.96 nM.

With `Oc1ncnc2nc(-c3cnn4ccc(N5CCC[C@@H]5c5cc(F)ccc5F)nc34)[nH]c12` [Compound 88, (R)-8-(5-(2-(2,5-difluorophenyl)pyrrolidin-1-yl)pyrazolo[1,5-a]pyrimidin-3-yl)-7H-purin-6-ol], the IC50 was determined as 0.77 nM.

As for `CC(C)(CO)c1nnc(-c2cnn3ccc(N4CCC[C@@H]4c4cc(F)ccc4F)nc23)[nH]1` [Compound 33, (R)-2-(5-(5-(2-(2,5-difluorophenyl)pyrrolidin-1-yl)pyrazolo[1,5-a]pyrimidin-3-yl)-4H-1,2,4-triazol-3-yl)-2-methylpropan-1-ol], the IC50 turned out to be 2.41 nM.

On to `COc1cc2nc(-c3cnn4ccc(N5CCC[C@@H]5c5cc(F)ccc5F)nc34)[nH]c2cc1CO` [Compound 67, (R)-(2-(5-(2-(2,5-difluorophenyl)pyrrolidin-1-yl)pyrazolo[1,5-a]pyrimidin-3-yl)-5-methoxy-1H-benzo[d]imidazol-6-yl)methanol], for which the IC50 is 0.32 nM.

As to `Cc1cncc2nc(-c3cnn4ccc(N5CCC[C@@H]5c5cc(F)ccc5F)nc34)[nH]c12` [Compound 99, (R)-2-(5-(2-(2,5-difluorophenyl)pyrrolidin-1-yl)pyrazolo[1,5-a]pyrimidin-3-yl)-7-methyl-1H-imidazo[4,5-c]pyridine], the IC50 was determined as 0.5 nM.

For the molecule `CC(O)(Cc1nnc(-c2cnn3ccc(N4CCC[C@@H]4c4cc(F)ccc4F)nc23)[nH]1)C(F)(F)F` (stereo partly drawn) [Compound 29, 3-(5-(5-((R)-2-(2,5-difluorophenyl)pyrrolidin-1-yl)pyrazolo[1,5-a]pyrimidin-3-yl)-4H-1,2,4-triazol-3-yl)-1,1,1-trifluoro-2-methylpropan-2-ol], the IC50 was 1.4 nM.

For `OC1(c2nnc(-c3cnn4ccc(N5CCC[C@@H]5c5cc(F)ccc5F)nc34)[nH]2)CC1` [Compound 53, (R)-1-(5-(5-(2-(2,5-difluorophenyl)pyrrolidin-1-yl)pyrazolo[1,5-a]pyrimidin-3-yl)-4H-1,2,4-triazol-3-yl)cyclopropan-1-ol], the half-maximal inhibitory concentration (IC50) was found to be 1.4 nM.

The values are drawn from patent publication US20210395256A1, “TYROSINE KINASE INHIBITORS, COMPOSITIONS AND METHODS THERE OF” (Betta Pharmaceuticals Co., Ltd., priority 2018, published 2021).
